Measurements taken from PMC10304880, “Novel Tryptanthrin Derivatives with Selectivity as c–Jun N–Terminal Kinase (JNK) 3 Inhibitors” (Molecules, 2023).

Legend:
JNK1 = target: T1, JNK1 (Homo sapiens, UniProt P45983); assay: KINOMEscan JNK1 binding (Kd); settings: 12-point series, max 33 μM, duplicate
T1 construct: purchased Eurofins Pharma Discovery (KINOMEscan service)
Method: (§1) All compounds were evaluated for their ability to bind to JNK1-3 using the KINOMEscan platform.
(§2) Compounds were submitted for dissociation constant (Kd) determination using KINOMEscan (Eurofins Pharma Discovery, San Diego, CA, USA), as described previously. […] Primary screening at fixed concentrations of compounds was performed in duplicate. To determine dissociation constant Kd, a 12-point half-log dilution series (a maximum concentration of 33 μM) was used.

JNK2 = target: T2, JNK2 (Homo sapiens, UniProt P45984); assay: KINOMEscan JNK2 binding (Kd); settings: 12-point series, max 33 μM, duplicate
T2 construct: purchased Eurofins Pharma Discovery (KINOMEscan service)
Method: as §1, §2

JNK3 = target: T3, JNK3 (Homo sapiens, UniProt P53779); assay: KINOMEscan JNK3 binding (Kd); settings: for Kd: KINOMEscan, 12-point series, max 33 μM, duplicate; for Selectivity Index JNK1/JNK3 / Selectivity Index JNK2/JNK3: ratio of Kd values
T3 construct: purchased Eurofins Pharma Discovery (KINOMEscan service)
Method: as §1, §2

[1] = test system: NF-κB/AP-1 transcriptional activity in THP-1Blue cells; assay: LPS-induced NF-κB/AP-1 alkaline phosphatase reporter assay in THP-1Blue cells; type: cell-based; settings: Homo sapiens, 30 min pretreatment, 250 ng/mL LPS, 24 h; read-out: AP Production in THP–1Blue IC50
Method: Activation of AP-1/NF-κB was measured using an alkaline phosphatase reporter gene assay in THP1-Blue cells. Human monocytic THP-1Blue cells were stably transfected with a secreted embryonic alkaline phosphatase gene that was under the control of a promoter inducible by AP-1/NF-κB.
(§3) Figure 2 Effect of compounds 4d and 4e on NF-κB/AP-1 activity and IL-6 production. Panel (A) THP-1Blue cells were pretreated with the indicated compounds or DMSO for 30 min, followed by addition of 250 ng/mL LPS or buffer for 24 h. […] Panel (B) MonoMac-6 cells were pretreated with the indicated compounds or DMSO for 30 min, followed by addition of 250 ng/mL LPS or buffer for 24 h. Production of IL-6 in the supernatants was evaluated with ELISA. The data in each panel are presented as the mean ± S.D. of triplicate samples from one experiment that is representative of three independent experiments.

[2] = CellTiter-Glo cytotoxicity in THP-1Blue cells; type: cell-based; settings: human, 24 h incubation
Method: (§4) Prior to evaluation of the compounds in cell-based assays, we measured their cytotoxicity in human monocytic THP-1Blue and MonoMac-6 cells during a 24 h incubation. […] Thus, these compounds were all excluded from subsequent testing in these cell lines.
(§5) Cytotoxicity was analyzed with a CellTiter-Glo Luminescent Cell Viability Assay Kit from Promega (Madison, WI, USA), according to the manufacturer’s protocol. Cells were treated with the compound under investigation and cultivated for 24 h. After treatment, the cells were allowed to equilibrate to room temperature for 30 min, substrate was added, and the luminescence measured using a Fluoroscan Ascent FL (Thermo Fisher Scientific, Waltham, MA, USA). The cell IC50 values were calculated by plotting the percentage inhibition against the logarithm of inhibitor concentration (at least five points).

[3] = CellTiter-Glo cytotoxicity in MonoMac-6 cells; type: cell-based; settings: human, 24 h incubation
Method: as §4, §5

[4] = test system: c-Jun phosphorylation in MonoMac-6 cells; assay: LPS-induced c-Jun (Ser63) phosphorylation in MonoMac-6 cells (sandwich ELISA); type: cell-based, human; settings: 30 min pretreatment, LPS 500 ng/mL
Method: After 30 min pretreatment with the compounds, the cells were stimulated with LPS (500 ng/mL), and the level of phospho-c-Jun (S63) was determined by a sandwich ELISA.
MonoMac-6 cell lysates were prepared using Cell Lysis Buffer (Cell Signaling Technology, Danvers, MA, USA). The phospho-c-Jun content was measured with ELISA using the PathScan Phospho-c-Jun (Ser63) Sandwich ELISA Kit II (Cell Signaling Technology, USA), and the data are shown as the ratio of phospho-c-Jun vs. total c-Jun, which was measured using the FastScanTM Total c-Jun ELISA kit (Cell Signaling Technology).
Figure 3 Effect of the compounds 4d, 4e, 4h, and IQ-1S on LPS-induced c-Jun phosphorylation. Human MonoMac-6 monocytic cells were pretreated with the indicated concentrations of compounds or 0.5% DMSO for 30 min, followed by treatment with LPS (500 ng/mL) or control buffer for another 30 min. The cells were lysed, and the lysates were analyzed with ELISA for phospho-c-Jun (Ser63) and total c-Jun. The data are represented as the ratio of phospho-c-Jun to total c-Jun. The data are presented as the mean ± S.D. of triplicate samples from one experiment that is representative of three independent experiments. * Significant differences (p < 0.05) with LPS control.

[5] = test system: IL-6 production in MonoMac-6 cells; assay: LPS-induced IL-6 production in MonoMac-6 cells (ELISA); type: cell-based, human; settings: 250 ng/mL LPS, 24 h
Method: All cells were cultured at 37 °C in a humidified atmosphere containing 5% CO2. Human THP-1Blue monocytic cells obtained from InvivoGen (San Diego, CA, USA) were cultured in RPMI 1640 medium (Mediatech Inc., Herndon, VA, USA) supplemented with 10% (v/v) fetal bovine serum (FBS), 4.5 g/L glucose, 100 μg/mL streptomycin, 100 U/mL penicillin, 100 μg/mL phleomycin (Zeocin), and 10 μg/mL blasticidin S. Human monocyte-macrophage MonoMac-6 cells (Deutsche Sammlung von Mikroorganismen und Zellkulturen GmbH, Braunschweig, Germany) were grown in RPMI 1640 medium supplemented with 10% (v/v) FBS, 10 μg/mL bovine insulin, 100 μg/mL streptomycin, and 100 U/mL penicillin.
as §3, with “Panel” for “Figure 2 Effect of compounds 4d and 4e on NF-κB/AP-1 activity and IL-6 production. Panel”

[6] = Homo sapiens, MONO-MAC-6, 30 min pretreatment

T1 sequence (P45983 whole entry): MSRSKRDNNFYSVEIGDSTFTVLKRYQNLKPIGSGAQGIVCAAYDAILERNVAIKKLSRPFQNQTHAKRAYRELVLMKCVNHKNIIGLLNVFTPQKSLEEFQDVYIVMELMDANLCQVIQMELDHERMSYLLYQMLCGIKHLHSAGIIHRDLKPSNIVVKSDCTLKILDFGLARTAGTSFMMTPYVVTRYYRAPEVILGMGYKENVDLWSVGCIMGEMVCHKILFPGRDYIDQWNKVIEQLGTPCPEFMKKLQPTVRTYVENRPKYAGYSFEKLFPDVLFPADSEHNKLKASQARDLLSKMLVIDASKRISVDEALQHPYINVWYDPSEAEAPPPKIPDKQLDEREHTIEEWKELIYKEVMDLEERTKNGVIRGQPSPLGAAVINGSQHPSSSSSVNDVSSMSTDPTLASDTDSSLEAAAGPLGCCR
T3 sequence (P53779 whole entry): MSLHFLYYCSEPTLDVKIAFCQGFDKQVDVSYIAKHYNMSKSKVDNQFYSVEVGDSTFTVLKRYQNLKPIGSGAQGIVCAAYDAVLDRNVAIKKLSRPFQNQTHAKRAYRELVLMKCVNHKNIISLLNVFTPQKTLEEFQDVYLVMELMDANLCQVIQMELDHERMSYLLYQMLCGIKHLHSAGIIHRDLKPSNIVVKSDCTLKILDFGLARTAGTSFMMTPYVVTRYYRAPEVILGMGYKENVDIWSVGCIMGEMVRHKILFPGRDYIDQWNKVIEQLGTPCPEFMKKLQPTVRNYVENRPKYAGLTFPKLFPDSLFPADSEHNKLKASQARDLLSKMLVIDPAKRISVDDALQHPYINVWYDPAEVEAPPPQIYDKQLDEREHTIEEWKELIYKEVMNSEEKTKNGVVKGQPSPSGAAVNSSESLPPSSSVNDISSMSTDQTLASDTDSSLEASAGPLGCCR
T2 sequence (P45984 whole entry): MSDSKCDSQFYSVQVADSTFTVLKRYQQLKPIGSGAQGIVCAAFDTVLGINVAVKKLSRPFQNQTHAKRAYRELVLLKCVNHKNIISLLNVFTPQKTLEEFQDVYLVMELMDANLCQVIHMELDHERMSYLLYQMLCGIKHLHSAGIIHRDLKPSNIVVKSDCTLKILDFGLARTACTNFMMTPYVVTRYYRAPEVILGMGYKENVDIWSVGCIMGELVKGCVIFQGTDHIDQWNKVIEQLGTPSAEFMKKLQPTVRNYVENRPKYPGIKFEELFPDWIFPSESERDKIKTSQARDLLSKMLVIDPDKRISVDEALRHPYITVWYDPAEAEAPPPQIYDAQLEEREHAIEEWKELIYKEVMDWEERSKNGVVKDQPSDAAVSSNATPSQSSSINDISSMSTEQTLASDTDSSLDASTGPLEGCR

Row | Kd (JNK1) | Kd (JNK2) | selectivity index (JNK3 versus JNK1 and JNK2) (JNK3) | Kd (JNK3) | Selectivity Index JNK1/JNK3 (JNK3) | Selectivity Index JNK2/JNK3 (JNK3) | IC50 [1] | melting point | IC50 ([5]; 30 min pretreatment) | IC50 [5, 6] | SMILES | IC50 at 24 h [2] | IC50 at 24 h [3] | LPS-induced c-Jun phosphorylation (phospho-c-Jun S63 / total c-Jun) [4]
1 | > 30 µM | > 30 µM | > 7 | 0.34 ± 0.04 µM | >100 | >100 | 1.6 ± 0.1 µM | > 225 °C (dec.) |  |  | O=c1c2ccccc2nc2n1-c1ccc(-c3ccccc3)cc1C2=NO [Compound 4e, 8-Phenylindolo[2,1-b]quinazolin-6,12-dione Oxime] | > 50 µM | > 50 µM | dose-dependently inhibited
2 | 1.1 ± 0.1 µM | 0.72 ± 0.22 µM |  | 0.43 ± 0.04 µM | 2.6 | 1.7 | 5 ± 0.1 µM | > 225 °C (dec.) | 0.61 ± 0.04 µM | < 1 µM | O=c1c2ccc(F)cc2nc2n1-c1ccccc1C2=NO [Compound 4l, 3-Fluoroindolo[2,1-b]quinazolin-6,12-dione Oxime] | > 50 µM | > 50 µM | 
3 | 16.5 ± 0.7 µM | > 30 µM |  | > 30 µM |  |  | > 50 µM | 211 °C |  | > 50 µM | CCOC(=O)C(ON=C1c2ccccc2-n2c1nc1ccccc1c2=O)C(=O)OCC [Compound 5b, Diethyl 2-(((12-Oxoindolo[2,1-b]quinazolin-6(12H)-ylidene)amino)oxy)malonate] | > 50 µM | > 50 µM | 
4 | > 30 µM | > 30 µM |  | > 30 µM |  |  | > 50 µM | 218 °C |  | > 50 µM | CCOC(=O)CON=C1c2ccccc2-n2c1nc1ccccc1c2=O [Compound 5a, Ethyl 2-(((12-Oxoindolo[2,1-b]quinazolin-6(12H)-ylidene)amino)oxy)acetate] | > 50 µM | > 50 µM | 
5 | 0.95 ± 0.03 µM | 1.6 ± 0.1 µM |  | 0.32 ± 0.06 µM | 3.0 | 5.0 | 4.4 ± 1.6 µM | 210 °C |  | 7 ± 0.9 µM | C#CCOC(=O)ON=C1c2ccccc2-n2c1nc1ccccc1c2=O [Compound 5d, 6-((((Prop-2-yn-1-yloxy)carbonyl)oxy)imino)indolo[2,1-b]quinazolin-12(6H)-one] | > 50 µM | > 50 µM | 
6 | 0.67 ± 0.35 µM | 0.57 ± 0.12 µM |  | 0.23 ± 0.04 µM | 2.9 | 2.5 |  | > 225 °C (dec.) |  |  | Cc1ccc2c(c1)-n1c(nc3ccccc3c1=O)C2=NO [Compound 4h, 9-Methylindolo[2,1-b]quinazolin-6,12-dione Oxime] | > 50 µM | > 50 µM | dose-dependently inhibited
7 | > 30 µM | > 30 µM |  | > 30 µM |  |  | > 50 µM | 190 to 191 °C |  | > 50 µM | Cc1cccc2c1C(=NO)c1nc3cccc(C)c3c(=O)n1-2 [Compound 4p, 1,7-Dimethylindolo[2,1-b]quinazolin-6,12-dione Oxime] | > 50 µM | > 50 µM | 
8 |  |  |  |  |  |  |  |  |  |  | [Na+].[O-]/N=C1/c2ccccc2-c2nc3ccccc3nc21 [IQ-1S, reference compound] |  |  | dose-dependently inhibited
9 | > 30 µM | > 30 µM |  | > 30 µM |  |  | > 50 µM | > 300 °C (dec.) |  | > 50 µM | O=c1c2c(Br)cccc2nc2n1-c1cccc(Br)c1C2=NO [Compound 4u, 1,7-Dibromoindolo[2,1-b]quinazolin-6,12-dione Oxime] | > 50 µM | > 50 µM | 
